# Reference: patent US7914830B2, “Composition for inhibiting thrombosis” (Taiyo Kagaku Co., Ltd, priority 2003, dated 2011)
# Key:
# [1] = system: platelet poor plasma (PPP) separated from human blood; assay: APTT anti-coagulant activity of carrageenan antithrombotic agents (Test Example G-1); format: biochemical; conditions: for Anti-Coagulant Activity: relative to water control
# Description: The anti-coagulant activity of the antithrombotic agent of the present invention was assayed with a coagulometer (manufactured by SYSMEX CORPORATION) utilizing platelet poor plasma (PPP) separated from human blood.
# Ten microliters of a sample, 25 microliters of an APTT reagent (manufactured by INTERNATIONAL REAGENTS CORPORATION), and 25 microliters of 10% cephalin were placed into a reaction cuvette to react the components at 37° C. for 3 minutes, and 50 microliters of PPP was placed in the reaction cuvette to react the components for 2 minutes. Finally, 50 microliters of 25 millimolar calcium chloride was added to coagulate the mixture obtained. The time period (second) by which plasma was coagulated was measured, and defined as APTT.
# Here, water was used as the control, and the APTT was measured in the same manner. The anti-coagulant activity (%) was calculated from the measured APTT of the sample, relative to that of the control according to the following numerical formula. Anti-Coagulant Activity(%)=((APTT of Sample−APTT of Control)/APTT of Control)×100 […]
# [2] = system: platelet poor plasma (PPP) separated from human blood; assay: APTT and heparin-like activity, Hizikia fusiforme thrombus preventing compositions (Test Examples F′-1, F′-2); format: biochemical
# Description: The thrombus preventing effect of the thrombus preventing composition A of the present invention was evaluated by measuring the APTT with the coagulometer utilizing platelet poor plasma (PPP) separated from human blood.
# (§1) Ten microliters of a sample of which amount was adjusted so as to have a concentration of the thrombus preventing composition A of the present invention of 0.075, 0.15, 0.3 or 0.5 mg/mL calculated as a solid content, and 40 μL of PPP were placed in a reaction cuvette to react the components at 37° C. for 1 minute. Thereafter, 50 μL of an APTT reagent (manufactured by INTERNATIONAL REAGENTS CORPORATION) was added to further react the components at 37° C. for 2 minutes, and 50 μL of 25 mM calcium chloride was then added thereto. The time period (seconds) by which plasma was coagulated was measured, and defined as APTT.
# Here, as the control, APTT was measured using heparin adjusted to have a concentration of 0.05, 0.1, 0.2 and 0.3 U/mL as a sample in the same manner. The following calculation formula for a heparin-like activity value (U/mg) was obtained from this relationship between the concentration of this heparin and APTT of heparin, and the resultant value was plugged into this calculation formula to give a heparin-like activity value relative to heparin (1 U/mL) at each sample concentration.
# The APTTs were measured for the thrombus preventing composition A obtained in Example F′-1, the thrombus preventing compositions B, D and E obtained in Example F′-2, and the thrombus preventing composition F obtained in Example F′-3 at a concentration of 0.2 mg/mL calculated as a solid content in the same manner as in Test Example F′-1. Thereafter, the resultant value was plugged into the calculation formula for the heparin-like activity value (U/mg) in Test Example F′-1 to give a heparin-like activity value of each thrombus preventing composition. In addition, a sample was prepared in the same manner for the supernatant fraction with 80% ethanol in Example F′-2, and its heparin-like activity value was obtained.
# [3] = system: platelet rich plasma of a normal individual; assay: Prothrombin time (PT), anti-extrinsic blood coagulant activity, Hizikia fusiforme (Test Examples F-1, F-2); format: biochemical, human
# Description: The anti-extrinsic blood coagulant activity of the extrinsic blood coagulation preventing composition of the present invention was obtained as follows: Ten microliters of a sample of a heparin test solution adjusted by […] rich plasma of a normal individual using a coagulometer (manufactured by SYSMEX CORPORATION) to react the components at 37° C. for 1 minute. Thereafter, 100 μL of a PT reagent (manufactured by INTERNATIONAL REAGENTS CORPORATION) was added thereto, and the time period by which plasma was coagulated was measured, i.e. PT was measured. From the relationship between the concentration of this heparin test solution and the PT, the following numerical formula for a heparin-like activity value (U/mg) was obtained.
# Thereafter, a sample was prepared by diluting the extrinsic blood coagulation preventing composition A of the present invention with distilled water so as to have a concentration of 0.078, 0.156, 0.313, 0.625 or 1.25 mg/mL calculated as a solid content. The PT was measured in the same manner and the resultant value was plugged into the above numerical formula to give a heparin-like activity value relative to heparin (1 U/mL) at each sample concentration.
# In addition, a PT ratio was calculated at each sample concentration according to the following equation using a heparin test solution concentration of 0 mg/mL as the control. PT Ratio=PT When Adding Sample/PT of Control(Heparin Test Solution Concentration:0 mg/mL)
# The PTs were determined for the extrinsic blood coagulation preventing composition A obtained in Example F-1, the extrinsic blood coagulation preventing compositions B, C, D and E obtained in Example F-2, and the extrinsic blood coagulation preventing composition F obtained in Example F-3 at a concentration of 0.2 mg/mL calculated as a solid content. Thereafter, the resultant value was plugged into the calculation formula for a heparin-like activity value (U/mg) in Test Example F-1, and the heparin-like activity value and the PT ratio of each extrinsic blood coagulation preventing composition were obtained. In addition, a sample was prepared using the supernatant fraction with 80% ethyl alcohol in Example F-2 in the same manner, and the heparin-like activity value and the PT ratio were obtained.
# [4] = system: platelet poor plasma (PPP) separated from human blood; assay: APTT and heparin-like activity, enzymatically treated Hizikia fusiforme compositions (Test Examples F″-1, F″-2); format: biochemical
# Description: The thrombus preventing effect of the composition A for preventing thrombus of the present invention was evaluated by measuring the APTT with a coagulometer (manufactured by SYSMEX CORPORATION) utilizing platelet poor plasma (PPP) separated from human blood.
# as §1, with “concentration of 0.075, 0.15,” for “concentration of the thrombus preventing composition A of the present invention of 0.075, 0.15,”, “and 40 μl of PPP” for “and 40 μL of PPP”, “was added thereto to further” for “was added to further”, “time period (second) by which” for “time period (seconds) by which”
# Here, as the control, the APTT was measured in the same manner using heparin adjusted to a concentration of 0.05, 0.1, 0.2 or 0.3 U/mL as a sample. The following calculation formula for a heparin-like activity value (U/mg) was obtained from the relationship between the concentration of heparin and the APTT of heparin. The resultant value was plugged into the calculation formula to give a heparin-like activity value relative to heparin (1 U/mL) at each sample concentration.
# The APTTs were measured for the composition A for preventing thrombus obtained in Example F″-1, the compositions B and C for preventing thrombus obtained in Example F″-2, and the comparative composition obtained in Comparative Example F″-1 in the same manner as in Test Example F″-1 at a concentration of 0.2 mg/mL calculated as a solid content. Thereafter, the resultant value was plugged into the calculation formula for a heparin-like activity value (U/mg) in Test Example F″-1, to give a heparin-like activity value of each composition for preventing thrombus.
# [5] = system: platelet poor plasma (PPP) separated from human blood; assay: APTT and heparin-like activity, hibiscus anti-blood coagulant compositions (Test Examples C-1 to C-3); format: biochemical
# Description: Ten microliters of heparin adjusted to a concentration of 0.05, 0.1, 0.2 or 0.4 U/mL and 40 μL of platelet poor plasma (PPP) separated from human blood were placed in a reaction cuvette, and the components were reacted at 37° C. for 1 minute. Thereafter, 50 μL of an APTT reagent (manufactured by INTERNATIONAL REAGENTS CORPORATION) was added thereto to further react at 37° C. for 2 minutes, and 50 μL of 25 mM calcium chloride was then added. The time period by which plasma was coagulated (APTT; second) was measured with a coagulometer (manufactured by SYSMEX CORPORATION). In order to evaluate the anti-blood coagulant effect of the anti-blood coagulant composition of the present invention, a calculation formula for the heparin-like activity value (U/mg) was obtained from the relationship between the heparin concentration and the APTT of heparin.
# Thereafter, 50 μL of an APTT reagent (manufactured by INTERNATIONAL REAGENTS CORPORATION) was added to further react the components at 37° C. for 2 minutes.
# [6] = heparin concentration 0.05 U/mL
Substance,APTT ([1]; concentration 0.5 mg/mL),Anti-Coagulant Activity ([1]; concentration 0.5 mg/mL),APTT ([1]; concentration 2.5 mg/mL),Anti-Coagulant Activity ([1]; concentration 2.5 mg/mL),APTT ([1]; concentration 5.0 mg/mL),Anti-Coagulant Activity ([1]; concentration 5.0 mg/mL),further results
λ-carrageenan,398 s,784%,600 or more sec,1200 or more %,600 or more sec,1200 or more %,
heparin,,,,,,,"APTT [2, 6]: 39.6 s; APTT ([2]; heparin concentration 0.1 U/mL): 50.9 s; APTT ([2]; heparin concentration 0.2 U/mL): 86.4 s; APTT ([2]; heparin concentration 0.3 U/mL): 180.2 s; PT ([3]; heparin concentration 0.0625 U/mL): 11.6 s; PT ([3]; heparin concentration 0.125 U/mL): 11.8 s; PT ([3]; heparin concentration 0.25 U/mL): 12.3 s; PT ([3]; heparin concentration 0.5 U/mL): 13.2 s; PT ([3]; heparin concentration 1 U/mL): 18.1 s; APTT [4, 6]: 39.6 s; APTT ([4]; heparin concentration 0.1 U/mL): 50.9 s; APTT ([4]; heparin concentration 0.2 U/mL): 86.4 s; APTT ([4]; heparin concentration 0.3 U/mL): 180.2 s; APTT [5, 6]: 39.6 s; APTT ([5]; heparin concentration 0.1 U/mL): 50.9 s; APTT ([5]; heparin concentration 0.2 U/mL): 86.4 s; APTT ([5]; heparin concentration 0.4 U/mL): 180.2 s"
κ-carrageenan,99 s,120%,491 s,991%,600 or more sec,1200 or more %,
ι-carrageenan,162 s,260%,600 or more sec,1200 or more %,600 or more sec,1200 or more %,
